Consider one molecule from patent US5789447A, “Nitric oxide releasing compounds as protective agents in ischemia reperfusion injury” (priority 1995, dated 1998).

One series has as its system leukocytes. Kind of series: Leukocyte adherence and emigration after ischemia reperfusion (mesenteric venules). It counts as in vivo, rat. The settings on record: 20 min ischemia, 10 and 30 min reperfusion; 100 μM; FIG. 4B. As to the method:
(§1) Male Sprague-Dawley rats weighing 200-250 g apiece were maintained on a purified laboratory diet and fasted for 24 hours prior to each experiment. The animals were initially anesthetized with pentobarbital (65 mg/kg body weight) and then a tracheotomy was performed to facilitate breathing during subsequent experimentation. The right carotid artery was cannulated and system arterial pressure was measured with a Statham P23A pressure transducer (Oxnard, Calif.) connected to the carotid artery cannula. Systemic blood pressure and heart rate were continuously recorder with a Grass physiologic recorded (Grass Instruments).
(§2) Rats were placed in a supine position on an adjustable plexiglass microscope stage and the mesentery was prepared for microscopic observation as described previously (Asako et al., Gastroenterology, 103, 146-152 (1992); Kurose et al., Circ. Res., in press (1993)). Briefly, the mesentery was draped over a non-fluorescent coverslip that allowed for observation of a 2 cm^2 segment of tissue. The exposed bowel wall was covered with Saran Wrap (Dow Chemical Co.) and the mesentery was superfused with bicarbonate-buffered saline (pH 7.4, 37° C.) that was bubbled with a mixture of 5% CO2 and […].
(§3) An inverted microscope (TMD-25, Diaphoto, Nikon, Tokyo, Japan) with a 40x objective lens (Fluor, Nikon) was used to observe the mesenteric microcirculation. The mesentery was transilluminated with a 12 V-100 W direct current-stabilized light source. A video camera (VK-C150, Hitachi, Ibaragi, Japan) mounted on the microscope projected the image onto a color monitor (PVM-2030, Sony, Tokyo, Japan) and the images were recorded using a videocassette record (NV8950, Panasonic, Tokyo, Japan). A video time-date generator (WJ810, Panasonic) projected the time, date and stopwatch function onto the monitor.
(§4) Single unbranched venules with diameters ranging between 25 and 35 μm and length greater than 150 μm were selected for study. Venular diameter (DV) was measured either on- or off-line using a video caliper (Microcirculation Research Institute, Texas A&M University, College Station, Tex.). Red blood cell centerline velocity (VRBC) was measured in venules using an optical Dopper velocimeter (Microcirculation Research Institute, Texas A&M University, College Station, Tex.). The velocimeter was calibrated against a rotating glass disk coated with red blood cells. Venular blood flow was calculated from the product of mean red blood cell velocity (Vmean =centerline velocity/1.6; Davis, Microvasc. Res., 34, 223-230 (1987)) and microvascular cross-sectional area, assuming cylindrical geometry. Wall shear rate (γ) was calculated based on the Newtonian definition γ=8(Vmean /D).
The number of adherent leukocytes was determined off-line during playback of videotape images. A leukocyte was considered to be adherent to venular endothelium if it remained stationary for a period equal to or greater than 30 seconds (Granger et al., Am. J. Physiol., 257, G683-G688 (1989)). Adherent cells were expressed as the number per 100 μm length of venule. The number of emigrated leukocytes was also determined off-line during playback of videotape images. Any interstitial leukocytes present in the mesentery at the onset of the experiment were subtracted from the total number of leukocytes that accumulated during the course of the experiment. Leukocyte emigration was expressed as the number per field of view surrounding the venule. Platelet-leukocyte aggregates, which were visible within postcapillary venules, were quantitated and expressed as the number of aggregates crossing a fixed point within the venule over a 5 min period. Mast cells in the microvascular beds of the rat mesenteries were visualized by using 0.1% toluidine blue. The number of normal and degranulated mast cells was determined and the percentage of degranulated mast cells was calculated.

The next series deals with mesenteric venules. Kind of series: Albumin leakage across mesenteric venules after ischemia reperfusion. It counts as in vivo, rat. To be noted: 10 min and 30 min after reperfusion; 100 μM; FIG. 4C. As to the method:
as §1, §2, §3
as §4, with “The velocimeter was calibrated against a rotating glass disk coated with red blood cells.” left out
After all parameters measured on-line were in a steady state, images from the mesenteric preparation were recorded on videotape for 10 min. […]

For a further series, the system named is rat mesenteric venules. The series is described as follows: Venular diameter, RBC velocity and wall shear rate after ischemia reperfusion. It counts as in vivo. To be noted: 100 μM in superfusate. The method, then:
as §1, §2, §3, §4
After all parameters measured on-line were in a steady state, images from the mesenteric preparation were recorded on videotape for 10 min. […] The mesentery was made ischemic for zero (sham ischemia) or 20 min. After the ischemic period, the ligation was gently removed. In some experiments, either sodium nitroprusside (SNP, 100 μM, Sigma Chemical), spermine-NO (SpNO, 100 μM), SIN-1 (100 μM), spermine (SP, 100 μM, Sigma Chemical), or NG-nitro-L-arginine methyl ester (L-NAME, 100 μM, Sigma Chemical) was added to the superfusate and the same protocol was employed. Spermine-NO and SIN-1, which are NO donors, were obtained from the National Institutes of Health, Bethesda, Md. […]

Series [1] concerns microvasculature. Kind of series: Capillary pressure and vascular resistance in cat small intestine transplant. The format is in vivo, cats. To be noted: FIG. 13.
The test system of series [2] is microvasculature. The series is described as follows: Lymph flow and lymph protein clearance in cat small intestine transplant. It counts as in vivo, cats.
The subject of a further series is mast cells. Kind of series: Degranulation of microvascular mast cells after ischemia reperfusion. The format is in vivo, rat. To be noted: 20 min ischemia, 30 min reperfusion; 100 μM; FIG. 7. As to the method:
as §1, §2
(§5) An inverted microscope (TMD-25, Diaphoto, Nikon, Tokyo, Japan) with a 40x objective lens (Fluor, Nikon) was used to observe the mesenteric microcirculation. […] A video camera (VK-C150, Hitachi, Ibaragi, Japan) mounted on the microscope projected the image onto a color monitor (PVM-2030, Sony, Tokyo, Japan) and the images were recorded using a videocassette record (NV8950, Panasonic, Tokyo, Japan). […]
as §4, with “The velocimeter was calibrated against a rotating glass disk coated with red blood cells.” left out
The number of adherent leukocytes was determined off-line during playback of videotape images. […] Adherent cells were expressed as the number per 100 μm length of venule. The number of emigrated leukocytes was also determined off-line during playback of videotape images. […] Leukocyte emigration was expressed as the number per field of view surrounding the venule. […]

The test system of series [3] is Chinese hamster V79 lung fibroblasts. The series is described as follows: V79 clonogenic survival, hypoxanthine/xanthine oxidase (HX/XO) cytotoxicity. The settings on record: 1 mM. As to the method:
Chinese hamster V79 lung fibroblasts were cultured in F12 medium supplemented with 10% fetal calf serum and antibiotics. Cell survival was assessed by clonogenic assay with 85-95% plating efficiency. Stock cultures of exponentially growing cells were trypsinized, rinsed, and plated (7×10^5 cells/dish) into a number of 100 cm^2 petri dishes and incubated 16 hr at 37° C. prior to experimental protocols.
It has been shown that exposure of V79 cells to hydrogen peroxide results in dose-dependent cytotoxicity (Mitchell et al., supra).
HX and XO were purchased from Boehringer Co. (Indianapolis, Ind.). Nitrite, diethylamine, sulfinamide, diethylenetriaminepentaacetic acid (DETAPAC) and N-(1-naphthyl)ethylenediaminedihydrogenchloride (NEDD) were purchased from Aldrich (Milwaukee, Wis.). Cytosine-β-D-arabinofuranoside and ferricytochrome c were purchased from Sigma (St. Louis, Mo.). DEA/NO and SPER/NO were synthesized as previously described (Maragos et al., (1991), supra).
Exponentially growing cultures of Chinese hamster V79 fibroblasts were exposed to either HX/XO (final concentration of HX was 0.5 mM; 0.08 units/ml XO were used) for various amounts of time (FIG. 1A) or to various concentrations of hydrogen peroxide for one hour (FIG. 1B). […] Additionally, 1 mM DEA/NO was added to medium in the absence of cells, incubated at 37° C. for 1 hr or 16 hrs, and then added just prior to the addition of hydrogen peroxide to evaluate the effects of DEA/NO which had released NO. After treatment, cell monolayers were rinsed twice with phosphate-buffered saline (PBS), trypsinized, counted and plated in triplicate for macroscopic colony formation. Each dose determination was plated in triplicate and experiments were repeated a minimum of two times. Plates were incubated for 7 days, after which colonies were fixed with methanol/acetic acid (3:1), stained with crystal violet, and counted. Colonies containing more than 50 cells were scored.

Series [4] is described as follows: NO release rate / half-life. It counts as physicochemical. The settings on record: vs DEA/NO.
The subject of series [5] is platelet-leukocyte aggregates. Kind of series: Platelet-leukocyte aggregates after ischemia reperfusion. It counts as in vivo, rat. To be noted: 20 min ischemia, 30 min reperfusion; 100 μM; FIG. 6. As to the method:
as §1, with “Instruments). […]” for “Instruments).”
as §5
Single unbranched venules with diameters ranging between 25 and 35 μm and length greater than 150 μm were selected for study. Venular diameter (DV) was measured either on- or off-line using a video caliper (Microcirculation Research Institute, Texas A&M University, College Station, Tex.). […] Wall shear rate (γ) was calculated based on the Newtonian definition γ=8(Vmean /D). […]

In another series the test system is intestinal mucosa. Kind of series: Intestinal blood to lumen 51Cr-EDTA clearance (mucosal permeability) in cat small intestine transplant. It counts as in vivo, cats.
In the next series the test system is small intestine. Kind of series: Water absorption in cat small intestine transplant. It counts as in vivo, cats. The settings on record: during 120 min of reperfusion; 0.1 mmol; vs untreated; FIG. 10.

The structures appear in SMILES notation.

As for `NCCCNCCCCN(CCCN)/[N+]([O-])=N/O` [SpNO, spermine-NO], the “reduction of number of emigrated leukocytes” value with leukocytes is listed as 64-71%. Further, the “attenuation of albumin leakage” value in the series with mesenteric venules is 70%. Further, in the series on rat mesenteric venules (in words), the “reversal of decrease in RBC velocity after reperfusion” value was “reversed the decreases” and the “reversal of decrease in wall shear rate after reperfusion” value was “reversed the decreases”. In the series with rat mesenteric venules (30 min after reperfusion), this molecule came in with an RBC velocity of 3.06 ± 0.28 mm/sec, a Venular diameter of 31.8 ± 2.1 μm and a Wall Shear Rate of 480 ± 27 s⁻¹. Further, in the series with microvasculature [1], the capillary pressure result is on record as “Significant elevation”. Moreover, in the series with microvasculature [2] (FIG. 11), the lymph flow result was “Increased lymph flow”. Moreover, the lymph protein clearance result in the series with microvasculature [2] (FIG. 12) is on record as “increased lymph protein clearance”. Further, in the series with mast cells, the “degranulation of microvascular mast cells” value is recorded as “significantly inhibited”. Besides, the “protection against HX/XO-induced cell killing” value in series [3] was “protected V79 cells against HX/XO induced cytotoxicity but to a lesser extent than DEA/NO”. For the same molecule, the “NO release, times slower than DEA/NO” value in series [4] is 40 times. Moreover, the platelet-leukocyte aggregate formation entry in series [5] is “reduced”. Besides, the “mucosal permeability (51Cr-EDTA clearance)” value in the series on intestinal mucosa (6-hr hypothermic ischemia, 120 min reperfusion, FIG. 9) is “decreased”. Moreover, the 51Cr-EDTA clearance entry with intestinal mucosa (at 75 and 90 min, 0.1 mmol luminal perfusate) is recorded as “statistically significant decrease”. The water absorption result in the series with small intestine is listed as “increased significantly”.
